Assay results published in publication PMC11432330, “Novel Drug-like HsrA Inhibitors Exhibit Potent Narrow-Spectrum Antimicrobial Activities against Helicobacter pylori” (International Journal of Molecular Sciences, 2024).
In brackets after ≈: the same amount, converted by molar mass. Like-named read-outs stand apart in the source and are kept apart here. Each block holds one compound with its values, some of them ahead of it.

Assays:
[1] = test system: T1, HsrA (Helicobacter pylori 26695), ORF:12bb3c8f; assay: EMSA; conditions: EMSA: 10 mM bis-Tris pH 7.5, 40 mM KCl, 100 mg/L BSA, 1 mM DTT, 5% glycerol; room temperature 20 min; 6% native gel, SYBR Safe
T1 sequence: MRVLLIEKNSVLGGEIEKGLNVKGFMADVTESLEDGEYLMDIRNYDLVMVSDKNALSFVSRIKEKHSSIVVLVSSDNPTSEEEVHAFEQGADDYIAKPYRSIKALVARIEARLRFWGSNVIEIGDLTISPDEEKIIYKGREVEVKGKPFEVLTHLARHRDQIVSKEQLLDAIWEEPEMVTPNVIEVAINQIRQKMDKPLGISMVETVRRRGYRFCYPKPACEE

[2] = test system: H. pylori ATCC 700684 (CLR-R); assay: MIC/MBC, broth microdilution; assay type: cell-based, Helicobacter pylori
Description: (§1) The antimicrobial activity of the HsrA inhibitors was evaluated by the determination of the minimal inhibitory concentration (MIC) against four different strains of H. pylori: ATCC 700392 (aka 26695), ATCC 43504 (MTZ-resistant reference strain), ATCC 700684 (CLR-resistant reference strain), and Donostia 2 (LVX-resistant clinical isolate). The MICs were determined by the broth microdilution method, as previously described. Briefly, H. pylori strains were grown in blood agar at 37 °C for 72 h under microaerobic conditions. Fresh inoculums adjusted at OD600 = 0.01 [~10^6 colony forming units (CFU) per mL] in BHI broth supplemented with 4% fetal bovine serum (BHI + FBS) were prepared and immediately exposed to final concentrations between 64 and 0.031 mg/L of each compound of interest. The compound solvent (DMSO) as well as conventional antibiotics (MTZ, CLR, LVX) were included as controls. […] Each experiment was performed twice in triplicate. The MIC and MBC values of the selected compounds against C. jejuni ATCC 33560 were determined by using the same method and culture conditions described for the H. pylori strains.

[3] = test system: H. pylori Donostia 2 (LVX-R); assay: MIC/MBC, broth microdilution; assay type: cell-based, Helicobacter pylori; conditions: H. pylori Donostia 2 (LVX-R)
Description: as §1

[4] = test system: H. pylori ATCC 700392 (26695); assay: MIC/MBC, broth microdilution; assay type: cell-based, Helicobacter pylori; conditions: H. pylori ATCC 700392 (26695)
Description: as §1

[5] = test system: H. pylori ATCC 43504 (MTZ-R); assay: MIC/MBC, broth microdilution; assay type: cell-based, Helicobacter pylori; conditions: H. pylori ATCC 43504 (MTZ-R)
Description: as §1

H. pylori = test system: H. pylori; parameters: method as in PMID 31383920, PMID 34354964; conditions: ref [40],[70]; cited from earlier work
[6] = test system: K. pneumoniae ATCC 700603; assay: MIC/MBC according to EUCAST guidelines; assay type: cell-based, Klebsiella pneumonia; conditions: Klebsiella pneumoniae, ATCC700603
Description: (§2) The antimicrobial activities of the selected compounds against several Gram-negative and Gran-positive representative species of normal human microbiota were determined according to the EUCAST guidelines. Briefly, standardized inoculums (0.5 McFarland) were freshly prepared from overnight Mueller–Hinton agar plates of reference strains E. coli ATCC 25922, K. pneumonia ATCC 700603, E. faecalis ATCC 29212, S. aureus ATCC 29213, S. epidermidis ATCC 12228, and S. agalactiae ATCC 12386. Next, bacterial suspensions adjusted to 5 × 10^5 CFU/mL in Mueller–Hinton broth were exposed to a range of concentrations from 64 to 0.031 mg/L of the selected compounds. DMSO and conventional antibiotics LVX and AMP were included as controls. […] Experiments were performed twice in triplicate.

C. jejuni ATCC 33560 = assay: MIC/MBC, broth microdilution; assay type: cell-based; conditions: Campylobacter jejuni, ATCC33560, C. jejuni ATCC 33560
Description: as §1

E. coli ATCC 25922 = assay: MIC/MBC according to EUCAST guidelines; assay type: cell-based; conditions: Escherichia coli, ATCC25922
Description: as §2

S. aureus ATCC 29213 = assay: MIC/MBC according to EUCAST guidelines; assay type: cell-based; conditions: Staphylococcus aureus, ATCC29213
Description: as §2

E. faecalis ATCC 29212 = assay: MIC/MBC according to EUCAST guidelines; assay type: cell-based; conditions: Enterococcus faecalis, ATCC29212
Description: as §2

[7] = test system: S. epidermidis ATCC 12228; assay: MIC/MBC according to EUCAST guidelines; assay type: cell-based; conditions: Staphylococcus epidermidis, ATCC12228
Description: as §2

S. agalactiae ATCC 12386 = assay: MIC/MBC according to EUCAST guidelines; assay type: cell-based; conditions: Streptococcus agalactiae, ATCC12386
Description: as §2

[8] = Helicobacter pylori, ATCC700684, read-out: MBC
[9] = Helicobacter pylori, ATCC700684, read-out: MIC
[10] = Helicobacter pylori, read-out: MBC
[11] = Helicobacter pylori, read-out: MIC
[12] = Helicobacter pylori, ATCC700392, read-out: MBC
[13] = Helicobacter pylori, ATCC700392, read-out: MIC
[14] = Helicobacter pylori, ATCC43504, read-out: MBC
[15] = Helicobacter pylori, ATCC43504, read-out: MIC

Compound: CCCCACACTTGCCCCATACAGACTAAAATCAAATCACACCTTAAATAATAACAAAGTTTAAAATAAATATTAGTGGTTTTTATTAAGAACGCTTGTCTTTTTAGAATAAATGGCCATAAAATAGCCATAATTCTTGTAGGTATGCCCCCATTTTCCTATAAAAATTCCTAAAAAGATATTGTTATAAGACACATTAATAGTTTTTCTTGTATAATTCTAGGCTGAATTCAATTTATTTTATACGATATTAAGGAGACATATTACCATGTTTCAAATTAGATGGCATGC (double strand) [PporG (porGDAB promoter)]
binding [1]: binds

MIC [2, 9]: 1 µg/mL (≈ 5.84 µM)
MIC [3, 11]: 8 µg/mL (≈ 46.7 µM)
MIC [4, 13]: 1 µg/mL (≈ 5.84 µM)
MIC [5, 15]: 64 µg/mL (≈ 374 µM)
Compound: Cc1ncc([N+](=O)[O-])n1CCO [MTZ, metronidazole, reference compound]
MBC [2, 8]: 2 µg/mL (≈ 11.7 µM)
MBC [3, 10]: 8 µg/mL (≈ 46.7 µM)
MBC [4, 12]: 2 µg/mL (≈ 11.7 µM)
MBC [5, 14]: 128 µg/mL (≈ 748 µM)

Compound: COc1ccc([C@@H]2CC(=O)c3c(O)cc(O)cc3O2)cc1O [hesperetin]
Combinatory action with clarithromycin or metronidazole against H. pylori (H. pylori): strong synergistic bactericidal action

MIC [6]: 0.5 µg/mL (≈ 1.38 µM)
MIC (C. jejuni ATCC 33560): < 0.12 µg/mL
MIC [2, 9]: 0.12 µg/mL (≈ 0.332 µM)
MIC [3, 11]: 16 µg/mL (≈ 44.3 µM)
MIC [4, 13]: 0.12 µg/mL (≈ 0.332 µM)
MIC [5, 15]: 0.5 µg/mL (≈ 1.38 µM)
Compound: C[C@H]1COc2c(N3CCN(C)CC3)c(F)cc3c(=O)c(C(=O)O)cn1c23 [LVX, levofloxacin, reference compound]
MBC [6]: 0.5 µg/mL (≈ 1.38 µM)
MBC (C. jejuni ATCC 33560): < 0.12 µg/mL
MBC [2, 8]: 0.12 µg/mL (≈ 0.332 µM)
MBC [3, 10]: 32 µg/mL (≈ 88.6 µM)
MBC [4, 12]: 0.12 µg/mL (≈ 0.332 µM)
MBC [5, 14]: 0.5 µg/mL (≈ 1.38 µM)

MIC [2]: > 64 µg/mL
MIC [3]: > 64 µg/mL
MIC [4]: > 64 µg/mL
MIC [5]: 64 µg/mL (≈ 171 µM)
Compound: CC(=O)Nc1cc(C(=O)c2cccs2)nn(-c2ccc(Cl)cc2)c1=O [Ligand XXXI]
MBC [2]: > 64 µg/mL
MBC [3]: > 64 µg/mL
MBC [4]: > 64 µg/mL
MBC [5]: 64 µg/mL (≈ 171 µM)

MIC [2, 9]: 16 µg/mL (≈ 21.4 µM)
MIC [3, 11]: < 0.03 µg/mL
MIC [4, 13]: < 0.03 µg/mL
MIC [5, 15]: < 0.03 µg/mL
Compound: CC[C@H]1OC(=O)[C@H](C)[C@@H](O[C@H]2C[C@@](C)(OC)[C@@H](O)[C@H](C)O2)[C@H](C)[C@@H](O[C@@H]2O[C@H](C)C[C@H](N(C)C)[C@H]2O)[C@](C)(OC)C[C@@H](C)C(=O)[C@H](C)[C@@H](O)[C@]1(C)O [CLR, clarithromycin, reference compound]
MBC [2, 8]: 32 µg/mL (≈ 42.8 µM)
MBC [3, 10]: < 0.03 µg/mL
MBC [4, 12]: < 0.03 µg/mL
MBC [5, 14]: < 0.03 µg/mL

MIC [2]: 4 µg/mL (≈ 9.36 µM)
MIC [3]: 8 µg/mL (≈ 18.7 µM)
MIC [4]: 8 µg/mL (≈ 18.7 µM)
MIC [5]: 4 µg/mL (≈ 9.36 µM)
Compound: NC(Cn1ccc(C(F)(F)F)n1)=NOC(=O)Nc1ccc(SC(F)(F)F)cc1 [Ligand IX]
MBC [2]: 8 µg/mL (≈ 18.7 µM)
MBC [3]: 16 µg/mL (≈ 37.4 µM)
MBC [4]: 16 µg/mL (≈ 37.4 µM)
MBC [5]: 8 µg/mL (≈ 18.7 µM)

Compound: O=c1cc(-c2ccccc2)oc2cc(O)cc(O)c12 [chrysin]
Combinatory action with clarithromycin or metronidazole against H. pylori (H. pylori): strong synergistic bactericidal action

MIC (E. coli ATCC 25922): 4 µg/mL (≈ 11.4 µM)
MIC (S. aureus ATCC 29213): 2 µg/mL (≈ 5.72 µM)
MIC (E. faecalis ATCC 29212): 4 µg/mL (≈ 11.4 µM)
MIC [7]: 4 µg/mL (≈ 11.4 µM)
MIC (S. agalactiae ATCC 12386): 0.25 µg/mL (≈ 0.715 µM)
Compound: CC1(C)S[C@@H]2[C@H](NC(=O)[C@H](N)c3ccccc3)C(=O)N2[C@H]1C(=O)O [AMP, ampicillin, reference compound]
MBC (E. coli ATCC 25922): 4 µg/mL (≈ 11.4 µM)
MBC (S. aureus ATCC 29213): 4 µg/mL (≈ 11.4 µM)
MBC (E. faecalis ATCC 29212): 4 µg/mL (≈ 11.4 µM)
MBC [7]: 4 µg/mL (≈ 11.4 µM)
MBC (S. agalactiae ATCC 12386): 0.5 µg/mL (≈ 1.43 µM)

MIC [2]: 32 µg/mL (≈ 71.4 µM)
MIC [3]: 32 µg/mL (≈ 71.4 µM)
MIC [4]: 32 µg/mL (≈ 71.4 µM)
MIC [5]: 16 µg/mL (≈ 35.7 µM)
Compound: Cc1sc2c(c1C)C(O)=C(C(=O)Nc1ccc(OC(F)(F)F)cc1)S(=O)(=O)N2C [Ligand XXVIII]
MBC [2]: 32 µg/mL (≈ 71.4 µM)
MBC [3]: 32 µg/mL (≈ 71.4 µM)
MBC [4]: 64 µg/mL (≈ 143 µM)
MBC [5]: 16 µg/mL (≈ 35.7 µM)

MIC [2]: 8 µg/mL (≈ 19.6 µM)
MIC [3]: 8 µg/mL (≈ 19.6 µM)
MIC [4]: 8 µg/mL (≈ 19.6 µM)
MIC [5]: 8 µg/mL (≈ 19.6 µM)
Compound: Cc1oc2ccccc2c1CC(=O)NNC(=S)Nc1cccc(C(F)(F)F)c1 [Ligand X]
MBC [2]: 8 µg/mL (≈ 19.6 µM)
MBC [3]: 16 µg/mL (≈ 39.3 µM)
MBC [4]: 16 µg/mL (≈ 39.3 µM)
MBC [5]: 8 µg/mL (≈ 19.6 µM)

MIC [2]: 8 µg/mL (≈ 22.5 µM)
MIC [3]: 8 µg/mL (≈ 22.5 µM)
MIC [4]: 16 µg/mL (≈ 45 µM)
MIC [5]: 4 µg/mL (≈ 11.3 µM)
Compound: CCOC(=O)c1ccc(-n2nnc(C=CC=CN3CCOCC3)n2)cc1 [Ligand XVII]
MBC [2]: 8 µg/mL (≈ 22.5 µM)
MBC [3]: 8 µg/mL (≈ 22.5 µM)
MBC [4]: 16 µg/mL (≈ 45 µM)
MBC [5]: 8 µg/mL (≈ 22.5 µM)
